Measured values: patent publication US20220387317A1, “METHODS AND COMPOSITIONS RELATING TO SELECTIVE INTRACELLULAR DELIVERY OF CD38 INHIBITORS” (Ohio State Innovation Foundation, priority 2019, published 2022)
“Also recorded” adds a separate entry of the source.

Experiments:
Sprague Dawley rats = assay: Rat liver hilar clamp model of IRI (segmental 70% ischemia); format: in vivo
Text: In Vitro: Primary liver cells subjected to H2O2-induced oxidative stress injury. In Vivo: Liver IRI induced in Sprague Dawley rats using a segmental (70% ischemia) hilar clamp model. Markers of liver injury including plasma ALT and AST, tissue MDA, ATP, and GSH, and histology assessed. • b) Results Hypoxic HSCs had increased CD38 expression (FIG. 11) and CD38 activity measured by fluorometric assay (FIG. 12). CD38 expression, activity, and hepatocellular injury increased with duration of ischemia in a rat hilar clamp model of IRI: Sprague-Dawley rats underwent a hilar clamp procedure to induce IRI for 30, 60, 90, 120 min of ischemia followed by 6 h reperfusion. Tissue CD38 expression was measured by Western blot (FIG. 15A), serum ALT by colorimetric assay at 0, 30, 180, 360 min post reperfusion (FIG. 15B), and CD38 activity at all ischemia time points (FIG. 15C). CD38 inhibition increases cell viability, decreases intracellular ROS formation and ET-1 production in HSCs exposed to hypoxia/oxidant stress: Primary rat HSCs were exposed to 3 h hypoxia (0% 02) and 2 h oxidant stress (H2O2). […] Rat model of marginal donor organ recapitulates the inflammatory environment of a discarded “high risk” human donor organ: Control rats have little steatosis by H&E (FIG. 18A) and mild CD38 expression by IHC (FIG. 18B). Rats fed a methionine choline deficient (MCD) diet have severe steatosis by H&E (FIG. 18C) and high CD38 expression co-localizing with GFAP positive HSCs by IHC (FIG. 18D).

CD38 = target: T1, CD38 (Rattus norvegicus, UniProt Q64244); assay: CD38 activity during hepatic IRI; format: in vivo
T1 construct: Liver IRI induced in Sprague Dawley rats using a segmental (70% ischemia) hilar clamp model; from tissue; host or cells: rat liver (Sprague Dawley, hilar clamp ischemia/reperfusion)
T1 sequence (Q64244 1-303): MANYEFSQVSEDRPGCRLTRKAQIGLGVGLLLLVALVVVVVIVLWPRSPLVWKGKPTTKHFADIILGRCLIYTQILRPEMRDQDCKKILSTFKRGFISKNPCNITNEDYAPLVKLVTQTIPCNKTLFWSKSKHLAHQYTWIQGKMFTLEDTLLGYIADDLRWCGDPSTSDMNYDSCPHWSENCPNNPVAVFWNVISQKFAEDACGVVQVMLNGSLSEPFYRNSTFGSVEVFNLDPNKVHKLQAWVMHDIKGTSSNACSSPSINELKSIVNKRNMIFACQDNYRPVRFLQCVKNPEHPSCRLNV
Text: In Vitro: Primary liver cells subjected to H2O2-induced oxidative stress injury. In Vivo: Liver IRI induced in Sprague Dawley rats using a segmental (70% ischemia) hilar clamp model. […] Additionally, CD38 activity correlated with increased ischemic time (FIGS. 15A and 15C). However, Apigenin treatment attenuated liver IRI (FIG. 16). […] Additionally, Apigenin treatment improves tissue MAD, ATP and GSH. Lastly, Apigenin treatment preserves tissue architecture.

- CD38 activity during IRI (CD38; FIG. 14): rescued
- CD38 activity during IRI (CD38; FIG. 14, listed as Inhibitor): decreases
Compound: O=c1cc(-c2ccc(O)cc2)oc2cc(O)cc(O)c12 [Apigenin]
- tissue architecture (Sprague Dawley rats; histology, liver IRI): preserves
- liver IRI (injury) (Sprague Dawley rats; intrahepatic delivery, 1 h of ischemia and 6 h of reperfusion, FIG. 16): attenuated; also recorded: protection from injury; also recorded: decreased injury
- tissue ATP (Sprague Dawley rats; liver tissue, liver IRI): improves
- tissue GSH (Sprague Dawley rats; liver tissue, liver IRI): improves
- tissue MDA (malondialdehyde) (Sprague Dawley rats; liver tissue, liver IRI): improves
- ALT (Sprague Dawley rats; plasma, liver IRI): improves
- AST (Sprague Dawley rats; plasma, liver IRI): improves
